Assays:
MDCK = MDCK permeability assay
κ (KOP) [1] = molecular target: T1, κ (KOP) (Rattus norvegicus, UniProt P34975); assay: Cellular functional assay, antagonist effect, κ (KOP); type: cell-based
α2B(h) [2] = molecular target: T2, α2B(h) (Homo sapiens, UniProt P18089); assay: Cellular functional assay, agonist effect, α2B; type: cell-based
T2 sequence (P18089 1-450): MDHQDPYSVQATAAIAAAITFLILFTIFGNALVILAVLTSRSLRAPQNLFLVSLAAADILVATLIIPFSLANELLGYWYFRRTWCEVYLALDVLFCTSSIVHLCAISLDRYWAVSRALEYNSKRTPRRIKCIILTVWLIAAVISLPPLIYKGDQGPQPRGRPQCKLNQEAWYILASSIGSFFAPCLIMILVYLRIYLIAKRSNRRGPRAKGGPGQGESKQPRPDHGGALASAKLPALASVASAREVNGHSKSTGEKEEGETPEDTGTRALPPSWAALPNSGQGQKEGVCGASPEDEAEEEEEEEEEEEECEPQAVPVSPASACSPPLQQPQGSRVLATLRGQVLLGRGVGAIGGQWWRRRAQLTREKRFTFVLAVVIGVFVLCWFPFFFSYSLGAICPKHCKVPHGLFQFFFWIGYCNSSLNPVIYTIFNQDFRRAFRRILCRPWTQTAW

CYP2D6 = CYP2D6 (Homo sapiens, UniProt P10635); assay: CYP inhibition, CYP2D6
Chain of CYP2D6 (P10635 whole entry): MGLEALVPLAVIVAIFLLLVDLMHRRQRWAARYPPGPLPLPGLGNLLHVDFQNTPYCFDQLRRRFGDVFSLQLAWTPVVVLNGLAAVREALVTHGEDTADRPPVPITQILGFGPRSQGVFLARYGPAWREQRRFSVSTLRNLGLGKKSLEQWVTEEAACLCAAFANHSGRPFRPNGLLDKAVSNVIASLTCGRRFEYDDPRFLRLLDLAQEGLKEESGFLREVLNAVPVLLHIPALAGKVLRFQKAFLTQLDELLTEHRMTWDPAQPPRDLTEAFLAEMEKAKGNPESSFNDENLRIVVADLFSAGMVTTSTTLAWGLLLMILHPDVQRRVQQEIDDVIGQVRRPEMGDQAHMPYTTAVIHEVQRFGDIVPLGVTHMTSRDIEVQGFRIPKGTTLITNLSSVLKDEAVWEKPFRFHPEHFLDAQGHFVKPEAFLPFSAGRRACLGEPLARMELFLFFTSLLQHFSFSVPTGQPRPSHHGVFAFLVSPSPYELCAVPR

CYP3A4 = CYP3A4 (Homo sapiens, UniProt P08684); assay: CYP inhibition, CYP3A4; conditions: with either substrate
Chain of CYP3A4 (P08684 whole entry): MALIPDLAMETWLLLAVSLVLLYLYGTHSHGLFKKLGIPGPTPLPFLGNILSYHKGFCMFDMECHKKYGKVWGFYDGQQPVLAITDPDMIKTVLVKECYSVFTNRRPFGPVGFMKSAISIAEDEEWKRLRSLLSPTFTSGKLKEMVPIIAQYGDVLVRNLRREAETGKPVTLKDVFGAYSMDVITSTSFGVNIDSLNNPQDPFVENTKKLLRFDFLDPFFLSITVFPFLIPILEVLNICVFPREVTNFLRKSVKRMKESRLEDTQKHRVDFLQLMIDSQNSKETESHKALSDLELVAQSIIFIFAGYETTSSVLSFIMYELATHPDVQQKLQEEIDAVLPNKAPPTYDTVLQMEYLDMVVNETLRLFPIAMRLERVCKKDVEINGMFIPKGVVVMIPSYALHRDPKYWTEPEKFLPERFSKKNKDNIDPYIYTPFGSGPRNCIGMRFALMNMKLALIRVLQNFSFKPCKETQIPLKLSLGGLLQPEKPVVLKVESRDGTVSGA

[3] = In vitro metabolic disposition in monkey microsomes; type: in vitro ADME; conditions: monkey pooled liver microsomes, 0-45 minutes
Description: (§1) Compound HCV-3 also was subjected to in vitro metabolic disposition in mouse, rat, monkey and human microsomes. The test compound was incubated with pooled liver microsomes, since […] stability in liver microsomes can be predictive of drug stability in vivo. Aliquots were taken at 0, 5, 15, 30 and 45 minutes and quenched immediately. The samples were extracted and analyzed by LC-MS/MS.

[4] = In vitro metabolic disposition in human microsomes; type: in vitro ADME; conditions: human pooled liver microsomes, 0-45 minutes
Description: as §1

CYP2C8 = molecular target: T3, CYP2C8 (Homo sapiens, UniProt P10632); assay: CYP inhibition, CYP2C8
T3 sequence (P10632 1-490): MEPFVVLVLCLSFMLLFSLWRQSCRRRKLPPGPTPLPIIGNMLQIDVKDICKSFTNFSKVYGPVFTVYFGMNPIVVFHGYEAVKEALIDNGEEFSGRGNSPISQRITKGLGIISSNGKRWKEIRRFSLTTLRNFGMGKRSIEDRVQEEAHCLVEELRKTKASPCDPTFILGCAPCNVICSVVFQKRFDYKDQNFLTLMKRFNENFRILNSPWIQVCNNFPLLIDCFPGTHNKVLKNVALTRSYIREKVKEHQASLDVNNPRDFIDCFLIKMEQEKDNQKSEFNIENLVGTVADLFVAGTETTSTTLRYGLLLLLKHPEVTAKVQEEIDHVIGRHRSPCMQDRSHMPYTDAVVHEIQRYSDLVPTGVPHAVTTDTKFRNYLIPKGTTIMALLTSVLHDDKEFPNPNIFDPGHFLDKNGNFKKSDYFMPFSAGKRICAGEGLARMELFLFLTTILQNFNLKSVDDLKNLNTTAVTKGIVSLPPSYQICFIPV

CYP2B6 = molecular target: T4, CYP2B6 (Homo sapiens, UniProt P20813); assay: CYP inhibition, CYP2B6
T4 sequence (P20813 1-491): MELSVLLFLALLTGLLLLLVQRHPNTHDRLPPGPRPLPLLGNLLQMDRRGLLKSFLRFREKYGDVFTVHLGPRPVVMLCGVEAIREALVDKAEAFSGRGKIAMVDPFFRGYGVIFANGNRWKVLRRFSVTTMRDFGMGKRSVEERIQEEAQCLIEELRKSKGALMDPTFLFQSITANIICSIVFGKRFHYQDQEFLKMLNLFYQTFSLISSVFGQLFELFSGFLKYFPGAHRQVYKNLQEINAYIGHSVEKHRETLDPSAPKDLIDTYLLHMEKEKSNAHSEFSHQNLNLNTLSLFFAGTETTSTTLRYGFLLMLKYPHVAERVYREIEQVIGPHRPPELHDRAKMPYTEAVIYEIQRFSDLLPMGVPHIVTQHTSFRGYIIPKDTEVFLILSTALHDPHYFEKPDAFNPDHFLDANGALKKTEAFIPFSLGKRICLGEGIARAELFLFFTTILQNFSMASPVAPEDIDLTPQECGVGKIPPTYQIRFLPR

[5] = In vitro metabolic disposition in rat microsomes; type: in vitro ADME; conditions: rat pooled liver microsomes, 0-45 minutes
Description: as §1

μ (MOP) [6] = molecular target: T5, μ (MOP) (Homo sapiens, UniProt P35372); assay: Cellular functional assay, antagonist effect, μ (MOP); type: cell-based; conditions: antagonist mode
T5 sequence (P35372 whole entry): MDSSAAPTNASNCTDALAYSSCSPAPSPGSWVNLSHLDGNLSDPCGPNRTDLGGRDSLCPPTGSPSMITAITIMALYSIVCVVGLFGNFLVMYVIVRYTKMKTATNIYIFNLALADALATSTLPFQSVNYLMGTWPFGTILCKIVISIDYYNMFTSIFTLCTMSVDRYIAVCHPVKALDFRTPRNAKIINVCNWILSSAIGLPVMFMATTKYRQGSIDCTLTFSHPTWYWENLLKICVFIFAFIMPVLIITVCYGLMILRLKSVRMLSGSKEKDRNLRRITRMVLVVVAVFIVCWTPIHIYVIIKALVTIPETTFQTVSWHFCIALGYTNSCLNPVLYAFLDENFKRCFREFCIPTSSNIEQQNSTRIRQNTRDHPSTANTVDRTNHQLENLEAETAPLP

P-gp = assay: MDCK permeability assay; conditions: dog, MDCK
CYP2C19 = CYP2C19 (Homo sapiens, UniProt P33261); assay: CYP inhibition, CYP2C19
Chain of CYP2C19 (P33261 whole entry): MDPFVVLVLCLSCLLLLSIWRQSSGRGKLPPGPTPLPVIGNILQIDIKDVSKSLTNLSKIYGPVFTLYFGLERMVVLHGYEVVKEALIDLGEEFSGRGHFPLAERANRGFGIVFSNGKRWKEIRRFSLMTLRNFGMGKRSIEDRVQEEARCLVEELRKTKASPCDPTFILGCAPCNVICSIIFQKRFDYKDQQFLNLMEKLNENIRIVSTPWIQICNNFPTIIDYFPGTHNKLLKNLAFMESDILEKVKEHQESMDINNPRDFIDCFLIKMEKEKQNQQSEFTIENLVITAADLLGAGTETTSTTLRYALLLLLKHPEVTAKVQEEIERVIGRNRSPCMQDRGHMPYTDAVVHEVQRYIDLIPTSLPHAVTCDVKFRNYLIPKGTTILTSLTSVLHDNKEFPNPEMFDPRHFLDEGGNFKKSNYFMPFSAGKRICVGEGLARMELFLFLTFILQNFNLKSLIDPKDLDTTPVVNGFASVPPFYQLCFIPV

TA98 = assay: AMES testing, strain TA98; type: cell-based; conditions: TA98, up to 1 mg/mL, absence and presence of S9 metabolic activation
Description: (§2) Compound HCV-3 was negative for genotoxicity against both strains used in this assay (TA98 and TA 100) up to a maximum tested concentration of 1 mg/mL, in both the absence and presence of S9 metabolic activation. The assay controls behaved as expected.

κ (KOP) [7] = molecular target: T1, κ (KOP); assay: Cellular functional assay, agonist effect, κ (KOP); type: cell-based; conditions: agonist mode
[8] = In vitro metabolic disposition in mouse microsomes; type: in vitro ADME; conditions: mouse pooled liver microsomes, 0-45 minutes
Description: as §1

TA 100 = assay: AMES testing, strain TA 100; type: cell-based; conditions: TA 100, up to 1 mg/mL, absence and presence of S9 metabolic activation
Description: as §2

α2B(h) [9] = molecular target: T2, α2B(h); assay: Cellular functional assay, antagonist effect, α2B; type: cell-based; conditions: antagonist mode
CYP2C9 = CYP2C9 (Homo sapiens, UniProt P11712); assay: CYP inhibition, CYP2C9
Chain of CYP2C9 (P11712 whole entry): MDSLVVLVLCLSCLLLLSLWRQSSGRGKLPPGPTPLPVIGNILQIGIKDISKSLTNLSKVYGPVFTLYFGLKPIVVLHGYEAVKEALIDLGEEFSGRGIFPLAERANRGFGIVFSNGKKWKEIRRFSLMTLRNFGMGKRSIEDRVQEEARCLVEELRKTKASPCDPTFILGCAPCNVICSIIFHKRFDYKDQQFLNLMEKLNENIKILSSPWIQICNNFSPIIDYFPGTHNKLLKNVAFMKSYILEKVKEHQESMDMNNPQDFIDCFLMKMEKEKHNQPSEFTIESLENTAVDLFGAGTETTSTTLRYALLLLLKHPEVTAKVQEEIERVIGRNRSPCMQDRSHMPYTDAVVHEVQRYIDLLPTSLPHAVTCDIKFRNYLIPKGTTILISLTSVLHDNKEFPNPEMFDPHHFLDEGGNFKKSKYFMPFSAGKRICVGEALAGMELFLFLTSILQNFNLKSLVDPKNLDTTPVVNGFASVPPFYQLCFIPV

CYP1A2 = molecular target: T6, CYP1A2 (Homo sapiens, UniProt P05177); assay: CYP inhibition, CYP1A2
T6 sequence (P05177 1-516): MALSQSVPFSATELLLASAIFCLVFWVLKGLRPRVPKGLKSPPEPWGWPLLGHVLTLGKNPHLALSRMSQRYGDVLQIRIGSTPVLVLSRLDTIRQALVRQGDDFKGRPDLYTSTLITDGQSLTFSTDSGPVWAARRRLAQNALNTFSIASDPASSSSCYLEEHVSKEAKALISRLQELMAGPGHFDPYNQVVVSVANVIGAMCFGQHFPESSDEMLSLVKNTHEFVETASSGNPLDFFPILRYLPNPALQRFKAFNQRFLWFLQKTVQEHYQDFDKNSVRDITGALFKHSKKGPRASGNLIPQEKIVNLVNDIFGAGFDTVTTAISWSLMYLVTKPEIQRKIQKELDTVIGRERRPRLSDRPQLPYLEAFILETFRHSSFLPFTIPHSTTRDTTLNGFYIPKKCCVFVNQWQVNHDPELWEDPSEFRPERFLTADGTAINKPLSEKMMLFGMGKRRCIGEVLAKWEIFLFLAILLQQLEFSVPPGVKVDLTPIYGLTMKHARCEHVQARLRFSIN

hERG = hERG (Homo sapiens, UniProt Q12809); assay: hERG inhibition; type: cell-based
Chain of hERG (Q12809 whole entry): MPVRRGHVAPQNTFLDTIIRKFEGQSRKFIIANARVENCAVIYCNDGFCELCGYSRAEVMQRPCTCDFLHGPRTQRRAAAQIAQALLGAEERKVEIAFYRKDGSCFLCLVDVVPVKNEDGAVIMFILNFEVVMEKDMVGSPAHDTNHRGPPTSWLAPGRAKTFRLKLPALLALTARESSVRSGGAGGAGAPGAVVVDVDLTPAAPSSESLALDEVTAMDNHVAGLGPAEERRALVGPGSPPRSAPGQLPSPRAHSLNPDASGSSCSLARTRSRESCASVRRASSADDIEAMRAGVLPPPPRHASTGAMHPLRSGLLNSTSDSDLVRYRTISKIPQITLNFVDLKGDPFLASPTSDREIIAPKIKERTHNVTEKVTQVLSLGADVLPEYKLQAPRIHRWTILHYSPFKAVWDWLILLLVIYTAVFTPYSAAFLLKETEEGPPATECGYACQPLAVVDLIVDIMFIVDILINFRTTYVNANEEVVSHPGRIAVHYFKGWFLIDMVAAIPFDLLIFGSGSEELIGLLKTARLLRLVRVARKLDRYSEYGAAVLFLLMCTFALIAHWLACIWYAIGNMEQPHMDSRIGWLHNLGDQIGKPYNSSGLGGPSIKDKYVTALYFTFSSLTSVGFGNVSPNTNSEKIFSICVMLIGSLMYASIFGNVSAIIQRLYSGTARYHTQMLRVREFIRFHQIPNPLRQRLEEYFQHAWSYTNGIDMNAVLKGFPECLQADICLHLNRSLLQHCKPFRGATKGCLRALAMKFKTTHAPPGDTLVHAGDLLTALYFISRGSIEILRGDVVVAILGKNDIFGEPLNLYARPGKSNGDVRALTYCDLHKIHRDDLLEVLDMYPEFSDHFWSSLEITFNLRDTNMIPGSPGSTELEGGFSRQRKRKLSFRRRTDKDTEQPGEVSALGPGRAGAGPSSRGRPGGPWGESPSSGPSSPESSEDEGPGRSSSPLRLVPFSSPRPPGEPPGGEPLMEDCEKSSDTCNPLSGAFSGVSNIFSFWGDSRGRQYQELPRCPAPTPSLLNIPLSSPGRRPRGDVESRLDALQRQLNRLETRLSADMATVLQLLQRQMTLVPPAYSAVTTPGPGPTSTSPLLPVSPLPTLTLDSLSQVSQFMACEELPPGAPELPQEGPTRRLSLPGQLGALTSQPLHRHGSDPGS
Description: Compound HCV-3 also was tested for hERG inhibition. Over the concentration range tested (up to 25 micromolar) no dose-response was obtained. […] The control compounds behaved as expected in the assay.

μ (MOP) [10] = molecular target: T5, μ (MOP); assay: Cellular functional assay, agonist effect, μ (MOP); type: cell-based; conditions: agonist mode

T1 sequence (P34975 whole entry): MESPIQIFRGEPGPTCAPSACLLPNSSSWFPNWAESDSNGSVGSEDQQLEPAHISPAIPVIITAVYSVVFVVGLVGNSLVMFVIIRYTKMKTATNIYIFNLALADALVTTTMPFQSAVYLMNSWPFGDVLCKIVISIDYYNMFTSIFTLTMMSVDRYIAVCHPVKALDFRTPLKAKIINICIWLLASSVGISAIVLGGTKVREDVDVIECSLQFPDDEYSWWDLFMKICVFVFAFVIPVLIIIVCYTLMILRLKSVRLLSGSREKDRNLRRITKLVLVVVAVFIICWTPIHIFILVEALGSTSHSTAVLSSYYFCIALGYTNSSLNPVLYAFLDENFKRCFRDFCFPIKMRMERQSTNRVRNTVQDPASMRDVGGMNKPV

COc1cc2nc(N3CCN(C(=O)c4ccco4)CC3)nc(N)c2cc1OC [prazosin, reference compound]
efflux (control compound) (MDCK; in the absence of Cyclosporin A): showing efflux
efflux (control compound) (MDCK; in the presence of Cyclosporin A): inhibited

Oc1ccc2c3c1O[C@H]1c4[nH]c5c(c4C[C@@]4(O)[C@@H](C2)N(CC2CC2)CC[C@]314)C[C@@]1(O)[C@H]2Cc3ccc(O)c4c3[C@@]1(CCN2CC1CC1)[C@H]5O4 [nor-BNI, reference compound]
Kb (κ (KOP) [1]; reference antagonist, read-out: Reference Kb Ref): 0.072 nM

Cc1cccc([C@H](C)c2c[nH]cn2)c1C [dexmedetc, reference compound]
EC50 (α2B(h) [2]; reference agonist, read-out: Reference EC50 Ref): 13 nM

CCC(=O)NC1CCN(CCc2ccccc2)CC1 [HCV-3, N-(1-phenethylpiperidin-4-yl)propionamide]
% of Control Agonist Response, 1st (α2B(h) [2]; agonist mode, 1.0E−05, first replicate): 9.2%
% of Control Agonist Response, Mean (α2B(h) [2]; agonist mode, 1.0E−05, mean): 7.1%
% of Control Agonist Response, 2nd (α2B(h) [2]; agonist mode, 1.0E−05, second replicate): 5.1%
% of Control Agonist Response (α2B(h) [2]; agonist mode, test concentration 1.0E−05): 7.1%
CYP2D6 inhibitor category (CYP2D6): moderate CYP2D6 inhibitor
IC50 (CYP2D6): 4200 nM
CYP3A4 inhibition (CYP3A4): No inhibition
clearance [3]: low clearance
clearance [4]: low clearance
CYP2C8 inhibition (CYP2C8): No inhibition
CYP2B6 inhibition (CYP2B6): No inhibition
clearance [5]: moderate clearance
Agonist Response (% of Control), 1st (μ (MOP) [6]; 1.0E−05, first replicate): 100.1 % of Control
Agonist Response (% of Control), Mean (μ (MOP) [6]; 1.0E−05, mean): 101.0 % of Control
Agonist Response (% of Control), 2nd (μ (MOP) [6]; 1.0E−05, second replicate): 101.8 % of Control
% Inhibition of Control Agonist Response (μ (MOP) [6]; test concentration 1.0E−05): −1%
permeability (MDCK; MDCK assay): highly permeable
efflux ratio (P-gp): 1.48
Agonist Response (% of Control), 1st (κ (KOP) [1]; antagonist mode, 1.0E−05, first replicate): 112.4 % of Control
Agonist Response (% of Control), Mean (κ (KOP) [1]; antagonist mode, 1.0E−05, mean): 94.4 % of Control
Agonist Response (% of Control), 2nd (κ (KOP) [1]; antagonist mode, 1.0E−05, second replicate): 76.5 % of Control
% Inhibition of Control Agonist Response (κ (KOP) [1]; antagonist mode, test concentration 1.0E−05): 6%
CYP2C19 inhibitor category (CYP2C19): weak CYP2C19 inhibitor
inhibition at 25 micromolar (CYP2C19): 36.4%
genotoxicity (TA98): negative
% of Control Agonist Response, 1st (κ (KOP) [7]; 1.0E−05, first replicate): −10.3%
% of Control Agonist Response, Mean (κ (KOP) [7]; 1.0E−05, mean): −4.2%
% of Control Agonist Response, 2nd (κ (KOP) [7]; 1.0E−05, second replicate): 1.8%
% of Control Agonist Response (κ (KOP) [7]; test concentration 1.0E−05): −4.2%
clearance [8]: low clearance
genotoxicity (TA 100): negative
Agonist Response (% of Control), 1st (α2B(h) [9]; 1.0E−05, first replicate): 116.8 % of Control
Agonist Response (% of Control), Mean (α2B(h) [9]; 1.0E−05, mean): 127.8 % of Control
Agonist Response (% of Control), 2nd (α2B(h) [9]; 1.0E−05, second replicate): 138.7 % of Control
% Inhibition of Control Agonist Response (α2B(h) [9]; test concentration 1.0E−05): −28%
CYP2C9 inhibition (CYP2C9): No inhibition
CYP1A2 inhibition (CYP1A2): No inhibition
hERG inhibition category (hERG): weak or no hERG inhibition
IC50 (hERG; concentration range tested up to 25 micromolar): > 25000 nM
inhibition at 25 micromolar (hERG; human, at the top concentration of 25 micromolar): 32.5%
% of Control Agonist Response, 1st (μ (MOP) [10]; 1.0E−05, first replicate): 28.1%
% of Control Agonist Response, Mean (μ (MOP) [10]; 1.0E−05, mean): 33.5%
% of Control Agonist Response, 2nd (μ (MOP) [10]; 1.0E−05, second replicate): 38.9%
% of Control Agonist Response (μ (MOP) [10]; test concentration 1.0E−05): 33.5%
